Like-named read-outs stand apart in the source and are kept apart here.
How the values were obtained:
[1] = n-octanol/pH 7.0 buffer; cited from earlier work
[2] = Penetration of drugs through shed snake skin pretreated with enhancer (Franz diffusion cell, HPLC); settings: for RE (Relative enhancement compared to Azone®) / R.E. (Relative enhancement): 32°C; for R.E. (Relative enhancement): pH 7.0, relative to control (=1)
Experimental: The penetration promoting activity of DAIPD was compared to that of Azone®, taken as a typical enhancer, using shed snake skin as a model membrane. […] The permeants were selected to provide examples of basic drugs (clonidine), neutral drugs (hydrocortisone) and acidic drugs (indomethacin).
Shed snake skins were prepared as previously reported (Büyüktimkin, S., Büyüktimkin, N., and Rytting, J.H., Synthesis and enhancing effect of dodecyl 2-(N,N-dimethylamino) propionate on the transepidermal delivery of indomethacin, clonidine, and hydrocortisone, Pharm. Res., 10: 1632-1637, 1993) and as described in U.S. Patents No. 4,980,378 and No. 5,082,866, the disclosures of which are incorporated herein by reference. Shed snake skins were stored at -20°C. Before the experiment they were allowed to come to room temperature at least 12 hours before use. To reduce the variability of results, pieces cut from the same whole snake skin were used for each set of experiments
Indomethacin, clonidine, and hydrocortisone were assayed by HPLC procedures as described earlier; see Büyüktimkin et al., (1993), above.
Pieces of shed snake skin (approximately 3 x 3 cm) were pretreated with 15 µl of enhancer (divided into three 5 µl portions) 2 hr before the experiment. After mounting the skin on top of a Franz receptor cell filled with pH 7.0 (0.1 M) phosphate buffer, the donor cell was clamped on the top of the receptor cell. An aliquot of 0.5 ml of a suspension of hydrocortisone or indomethacin, prepared by suspending 50 mg or 25 mg of the drugs respectively, in 25 ml of the same buffer and stirring for 24 hr at 32°C, or a solution of clonidine (2%) in the same buffer were added to the donor cell. The solution in the receptor compartment was stirred by a magnetic stirrer. At appropriate time intervals samples were withdrawn from the receptor compartment and analyzed by HPLC.

[3] = test system: porcine esterase; experiment: Biodegradability of the enhancer in the presence of porcine esterase (HPLC disappearance of enhancer peak); assay type: in vitro ADME; settings: 32°C, pH 7.0
Experimental: A 0.1 ml aliquot of porcine esterase (235 units per mg protein) was diluted to 100 ml with pH 7.0 phosphate buffer. The enhancer solution was prepared by dissolving -12 mg (-0.045 mmoles) of the enhancer in 10 ml acetonitrile. An aliquot of 100 µl of this solution was transferred into a 10 ml volumetric flask. 9.8 ml of pH 7.0 buffer and 100 µl diluted esterase solution were added. The mixture was kept in a water bath at 32°C with constant stirring. The disappearance of the enhancer peak was monitored by HPLC. The absorbance wavelength was 204 nm. The solvent system was a mixture of acetonitrile and 0.02 M aqueous sodium hexanesulfonate (7:4) with a flow rate of 0.9 ml/min. The retention time of DAIPD was 3.95 min. The kinetic runs were done in triplicate.
The existence of esterase activity has been reported in shed snake skin (Nghiem, B.T., and Higuchi, T., Esterase activity in snake skin, Int. J. Pharm. 44: 125-130, 1988) . To confirm the biodegradability of DAIPD, its fragmentation in the presence of porcine esterase was examined. […] Esterase-catalyzed biodegradability of the enhancer is therefore confirmed. […] (Hirvonen, J., Paronen, P., and Urtti, A., Reversible enhancement of transdermal propranolol by dodecyl N,N-dimethylamino acetate, 18th International Symposium on Controlled Release of Bioactive Materials, July 8-11, 1991, Amsterdam, p 31).

[4] = cited from earlier work

| SMILES | log P [1] | RE (Relative enhancement compared to Azone®) ([2]; Clonidine) | RE (Relative enhancement compared to Azone®) ([2]; Hydrocortisone) | RE (Relative enhancement compared to Azone®) ([2]; Indomethacin) | R.E. (Relative enhancement) ([2]; clonidine) | R.E. (Relative enhancement) ([2]; hydrocortisone) | R.E. (Relative enhancement) ([2]; indomethacin) | other results |
| --- | --- | --- | --- | --- | --- | --- | --- | --- |
| C[C@]12CCC(=O)C=C1CC[C@@H]1[C@@H]2[C@@H](O)C[C@@]2(C)[C@H]1CC[C@]2(O)C(=O)CO [hydrocortisone] | 0.8 | – | – | – | – | – | – | – |
| CCCCCCCCCCCC(=O)OC(C)CN(C)C (stereo not shown) [DAIPD, 1-(N,N-dimethylamino)-2-propanol dodecanoate] | – | approximately two-fold | approximately two-fold | approximately equal to that of Azone® | 27 | 88 | 53 | Lag times ([2]; permeation of Clonidine, standard deviation in brackets): No lag time enhancement was found; half-life at 45 µM ([3]; pig, porcine esterase in phosphate buffer, degradation): 1.32 h; kobs ([3]; pseudo first order degradation): 0.0087 min⁻¹ |
| Clc1cccc(Cl)c1N=C1NCCN1 [clonidine] | 0.4 | – | – | – | – | – | – | – |
| CCCCCCCCCCCCOC(=O)CN(C)C [DDAA, dodecyl N,N-dimethylamino acetate] | – | – | – | – | – | – | – | enhancement of transdermal delivery of propranolol following pretreatment ([4]; after 4 days): no longer enhanced |
| COc1ccc2c(c1)c(CC(=O)O)c(C)n2C(=O)c1ccc(Cl)cc1 [indomethacin] | 1.2 | – | – | – | – | – | – | – |
| CCCCCCCCCCCCN1CCCCCC1=O [Azone®, 1-dodecylazacycloheptane-2-one] | – | 1 | 1 | 1 | 13 | 41 | 46 | RE (Relative enhancement compared to Azone®) ([2]; Prazosin (45% ethanolic solution)): 1; RE (Relative enhancement compared to Azone®) ([2]; Prostaglandin E1): 1; enhancement of transdermal delivery of propranolol following pretreatment ([4]; after a week): the enhancement still existed |

Source: patent EP0746294B1, “ABSORPTION ENHANCERS FOR TOPICAL PHARMACEUTICAL FORMULATIONS” (ODONTEX, INC., priority 1993, dated 1995)
